Source: patent US20100120700A1, “METHODS AND COMPOSITIONS FOR TREATING CERVICAL CANCER” (priority 2000, published 2010)
Values joined by “and” are separate entries in the source; they are usually repeats but may differ in a detail not shown here. Equal values may be shown once.

How the values were obtained:
Experiment in all cases: G assay PDZ-PL binding
CASK domain 1 = target: T1, CASK domain 1 (Homo sapiens, UniProt O14936); details: peptide 10 uM, protein 5
T1 construct: made in house; host or cells: E. coli (DH5alpha or BL-21)
Protocol: (§1) (1) A PDZ-domain polypeptide is bound to a surface, e.g. a protein binding surface. In a preferred embodiment, a GST/PDZ fusion protein containing one or more PDZ domains is bound to a polystyrene 96-well plate. […] In one embodiment, the GST/PDZ fusion protein is bound via an anti-GST antibody that is coated onto the 96-well plate. Adequate binding to the plate can be achieved when: • a. 100 uL per well of 5 ug/mL goat anti-GST polyclonal antibody (Pierce) in PBS is added to a polystyrene 96-well plate (e.g., Num Polysorb) at 4° C. for 12 hours. • b. The plate is blocked by addition of 200 uL per well of PBS/BSA for 2 hours at 4° C. • c. The plate is washed 3 times with PBS. • d. 50 uL per well of 5 ug/mL GST/PDZ fusion protein) or, as a negative control, GST polypeptide alone (i.e. not a fusion protein) in PBS/BSA is added to the plate for 2 hours at 4° C. • e. The plate is again washed 3 times with PBS. […]
(§2) (3) The binding of the biotinylated peptide to the GST/PDZ fusion protein surface can be detected using a variety of methods and detectors known to one of skill in the art. In one embodiment, 100 uL per well of 0.5 ug/mL streptavidin-horse radish peroxidase (HRP) conjugate dissolved in BSA/PBS is added and allowed to react for 20 minutes at 4° C. The plate is then washed 5 times with 50 mM Tris pH 8.0 containing 0.2% Tween 20, and developed by addition of 100 uL per well of HRP-substrate solution (TMB, Dako) for 20 minutes at room temperature (RT). The reaction of the HRP and its substrate is terminated by addition of 100 uL per well of 1M sulfuric acid, and the absorbance of each well of the plate is read at 450 nm.
(§3) (4) Specific binding of a PL peptide and a PDZ domain polypeptide is determined by comparing the signal from the well(s) in which the PL peptide and PDZ domain polypeptide are combined, with the background signal(s). The background signal is the signal found in the negative control(s). Typically a specific or selective reaction will be at least twice background signal, more typically more than 5 times background, and most typically 10 or more times the background signal. In addition, a statistically significant reaction will involve multiple measurements of the reaction with the signal and the background differing by at least two standard errors, more typically four standard errors, and most typically six or more standard errors. Correspondingly, a statistical test (e.g. a T-test) comparing repeated measurements of the signal with-repeated measurements of the background will result in a p-value<0.05, more typically a p-value<0.01, and most typically a p-value<0.001 or less. As noted, in an embodiment of the “G” assay, the signal from binding of a given PL peptide to immobilized (surface bound) GST polypeptide alone is one suitable negative control (sometimes referred to as “B 1”). Because all measurement are done in multiples (i.e. at least duplicate) the arithmetic mean (or, equivalently, average.) of several measurements is used in determining the binding, and the standard error of the mean is used in determining the probable error in the measurement of the binding. The standard error of the mean of N measurements equals the square root of the following: the sum of the squares of the difference between each measurement and the mean, divided by the product of (N) and (N−1). Thus, in one embodiment, specific binding of the PDZ protein to the platebound peptide is determined by comparing the mean signal (“mean S”) and standard error of the signal (“SE”) for a particular PL-PDZ combination with the mean B1.
(§4) For convenience, the assay conditions described in this section are referred to as the “G’ assay” and the “G” assay,” with the specific conditions described in the preceding section on G assays being referred to as the “G° assay.” The “G′ assay” is identical to the “G° assay” except at step (2) the peptide concentration is 10 uM instead of 20 uM. […]

DLG1 domain 3 = target: T2, DLG1 domain 3 (Homo sapiens, UniProt Q12959); details: peptide 10 uM, protein 5
T2 construct: made in house; host or cells: E. coli (DH5alpha or BL-21)
Protocol: as §1, §2, §3, §4

DLG2 #162.1 domain 2 = target: T3, DLG2 #162.1 domain 2 (Homo sapiens, UniProt Q15700, K278N); details: peptide 10 uM, protein 5
T3 construct: made in house; host or cells: E. coli (DH5alpha, BL21 or JM109), vector pGEX-3X
Protocol: as §1, §2, §3, §4

EBP50 #168.2 domain 2 = target: T4, EBP50 #168.2 domain 2 (Homo sapiens, UniProt O14745); details: peptide 10 uM, protein 5
T4 construct: made in house; host or cells: E. coli (DH5alpha, BL21 or JM109)
Protocol: as §1, §2, §3, §4

ERBIN domain 1 = target: T5, ERBIN domain 1 (Homo sapiens, UniProt Q96RT1); details: peptide 10 uM, protein 5
T5 construct: made in house; host or cells: E. coli (DH5alpha, BL21 or JM109)
Protocol: as §1, §2, §3, §4

KIAA0147 domain 2 = target: T6, KIAA0147 domain 2 (Homo sapiens, UniProt Q14160); details: peptide 10 uM, protein 5
T6 construct: made in house; host or cells: E. coli (DH5alpha or BL-21)
Protocol: as §1, §2, §3, §4

KIAA0973 #148.4 domain 1 = target: T7, KIAA0973 #148.4 domain 1 (Homo sapiens, UniProt Q9Y2H9); details: peptide 10 uM, protein 5
T7 construct: made in house; host or cells: E. coli (DH5alpha, BL21 or JM109)
Protocol: as §1, §2, §3, §4

KIAA1526 #126.1 domain 2 = target: T8, KIAA1526 #126.1 domain 2 (Homo sapiens, UniProt Q9P202, G331W); details: peptide 10 uM, protein 5
T8 construct: made in house; host or cells: E. coli (DH5alpha, BL21 or JM109)
Protocol: as §1, §2, §3, §4

MAGI 1 domain 3 = target: T9, MAGI 1 domain 3 (Homo sapiens, UniProt Q96QZ7); details: peptide 10 uM, protein 5
T9 construct: made in house; host or cells: E. coli (DH5alpha, BL21 or JM109)
Protocol: as §1, §2, §3, §4

MAGI 1 domain 6 = target: T10, MAGI 1 domain 6 (Homo sapiens, UniProt Q96QZ7); details: peptide 10 uM, protein 5
T10 construct: made in house; host or cells: E. coli (DH5alpha, BL21 or JM109), vector pGEX-3X
Protocol: as §1, §2, §3, §4

Magi2 domain 3 = target: T11, Magi2 domain 3 (Homo sapiens, UniProt Q86UL8); details: peptide 10 uM, protein 5
T11 construct: made in house; host or cells: E. coli (DH5alpha or BL-21)
Protocol: as §1, §2, §3, §4

NeDLG domain 2 = target: T12, NeDLG domain 2 (Homo sapiens, UniProt Q92796); details: vs GST only well, peptide 10 uM, protein 5
T12 construct: made in house; host or cells: E. coli (DH5alpha, BL21 or JM109)
Protocol: as §1, §2, §3, §4

Shroom domain 1 = target: T13, Shroom domain 1 (Homo sapiens, UniProt Q8TF72); details: peptide 10 uM, protein 5
T13 construct: made in house; host or cells: E. coli (DH5alpha or BL-21)
Protocol: as §1, §2, §3, §4

X-11 beta domain 2 = target: T14, X-11 beta domain 2 (Homo sapiens, UniProt Q99767); details: peptide 10 uM, protein 5
T14 construct: made in house; host or cells: E. coli (DH5alpha or BL-21)
Protocol: as §1, §2, §3, §4

T11 sequence (Q86UL8 with tags, fused parts or gaps): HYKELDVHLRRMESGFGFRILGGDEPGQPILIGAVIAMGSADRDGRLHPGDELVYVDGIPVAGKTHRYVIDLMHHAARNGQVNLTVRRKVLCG
T3 sequence (Q15700 whole entry, looked up, the tested form differs by isoform, tags, fused parts or gaps, stated change not applied): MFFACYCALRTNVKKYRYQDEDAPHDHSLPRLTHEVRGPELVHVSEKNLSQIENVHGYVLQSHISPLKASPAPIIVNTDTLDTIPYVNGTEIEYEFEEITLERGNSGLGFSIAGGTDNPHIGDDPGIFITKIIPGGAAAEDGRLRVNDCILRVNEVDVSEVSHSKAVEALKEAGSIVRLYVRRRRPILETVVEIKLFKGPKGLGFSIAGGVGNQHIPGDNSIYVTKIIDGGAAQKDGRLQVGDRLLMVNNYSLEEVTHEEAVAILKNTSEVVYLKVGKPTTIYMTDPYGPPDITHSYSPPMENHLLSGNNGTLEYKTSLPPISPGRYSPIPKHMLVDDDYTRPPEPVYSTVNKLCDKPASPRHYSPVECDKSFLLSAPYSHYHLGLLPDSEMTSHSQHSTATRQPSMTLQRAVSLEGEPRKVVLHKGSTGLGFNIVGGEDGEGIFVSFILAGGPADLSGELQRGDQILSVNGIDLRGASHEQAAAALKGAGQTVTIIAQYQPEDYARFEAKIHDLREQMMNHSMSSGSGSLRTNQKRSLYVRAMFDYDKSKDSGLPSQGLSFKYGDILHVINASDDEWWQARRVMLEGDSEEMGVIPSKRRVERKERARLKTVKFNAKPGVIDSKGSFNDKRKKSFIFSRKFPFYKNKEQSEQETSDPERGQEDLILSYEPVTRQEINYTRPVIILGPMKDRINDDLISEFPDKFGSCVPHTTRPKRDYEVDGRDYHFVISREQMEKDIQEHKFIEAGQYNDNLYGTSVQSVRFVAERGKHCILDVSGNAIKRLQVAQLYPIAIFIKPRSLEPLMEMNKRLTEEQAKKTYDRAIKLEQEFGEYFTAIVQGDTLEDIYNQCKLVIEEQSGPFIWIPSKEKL
T7 sequence (Q9Y2H9 963-1055): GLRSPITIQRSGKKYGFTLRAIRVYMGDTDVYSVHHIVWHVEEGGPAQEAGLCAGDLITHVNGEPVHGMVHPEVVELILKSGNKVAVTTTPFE
T5 sequence (Q96RT1 1313-1412): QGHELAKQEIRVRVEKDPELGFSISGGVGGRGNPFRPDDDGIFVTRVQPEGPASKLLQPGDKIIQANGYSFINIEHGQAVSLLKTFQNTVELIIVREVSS
T14 sequence (Q99767 with tags, fused parts or gaps): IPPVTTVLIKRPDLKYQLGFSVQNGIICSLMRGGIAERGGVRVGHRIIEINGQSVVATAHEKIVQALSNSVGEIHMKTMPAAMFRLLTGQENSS
T12 sequence (Q92796 with tags, fused parts or gaps): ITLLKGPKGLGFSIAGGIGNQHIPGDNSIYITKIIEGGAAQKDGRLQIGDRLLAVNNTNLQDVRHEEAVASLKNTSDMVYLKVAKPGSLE
T4 sequence (O14745 with tags, fused parts or gaps): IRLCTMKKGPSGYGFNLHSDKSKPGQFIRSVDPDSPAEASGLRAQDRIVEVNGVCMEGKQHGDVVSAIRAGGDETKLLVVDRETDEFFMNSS
T1 sequence (O14936 486-575): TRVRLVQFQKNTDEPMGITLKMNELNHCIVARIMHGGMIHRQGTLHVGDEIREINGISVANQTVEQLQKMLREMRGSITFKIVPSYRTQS
T9 sequence (Q96QZ7 with tags, fused parts or gaps): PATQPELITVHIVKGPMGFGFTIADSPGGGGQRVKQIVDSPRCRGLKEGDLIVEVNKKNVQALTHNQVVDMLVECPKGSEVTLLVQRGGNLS
T13 sequence (Q8TF72 26-116): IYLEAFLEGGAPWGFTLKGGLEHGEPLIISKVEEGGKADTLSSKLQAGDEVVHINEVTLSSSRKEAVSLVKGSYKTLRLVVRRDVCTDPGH
T6 sequence (Q14160 856-952): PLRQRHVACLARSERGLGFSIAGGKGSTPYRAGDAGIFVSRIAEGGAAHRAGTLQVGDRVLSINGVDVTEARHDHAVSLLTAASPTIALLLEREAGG
T8 sequence (Q9P202 272-371 G331W): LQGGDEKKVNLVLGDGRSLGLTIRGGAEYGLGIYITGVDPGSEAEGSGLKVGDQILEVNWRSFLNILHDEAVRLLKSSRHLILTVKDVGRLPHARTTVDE
T10 sequence (Q96QZ7 1143-1233): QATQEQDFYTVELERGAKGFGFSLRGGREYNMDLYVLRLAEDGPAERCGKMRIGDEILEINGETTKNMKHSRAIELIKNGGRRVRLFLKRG

20 mer peptide corresponding to the C-terminus of HPV16 E6 (PDZ ligand), biotinylated in binding assays; ends SSRTRRETQL (SEQ ID NO: 13) [HPV E6 #16]
Ave OD (CASK domain 1; A450 nm): 0.36 | OD S/N (CASK domain 1; vs GST only well): 1.15 | Ave OD (DLG1 domain 3; A450 nm): 0.3975 | OD S/N (DLG1 domain 3; vs GST only well): 2.45 | Ave OD (DLG2 #162.1 domain 2; A450 nm): 0.908 and 0.853 | OD S/N (DLG2 #162.1 domain 2; vs GST only well): 3.87 and 3.05 | Ave OD (EBP50 #168.2 domain 2; A450 nm): 0.3455 | OD S/N (EBP50 #168.2 domain 2; vs GST only well): 1.99 | Ave OD (ERBIN domain 1; A450 nm): 0.36 and 0.342 | OD S/N (ERBIN domain 1; vs GST only well): 1.82 and 1.30 | Ave OD (KIAA0147 domain 2; A450 nm): 0.3745 | OD S/N (KIAA0147 domain 2; vs GST only well): 2.46 | Ave OD (KIAA0973 #148.4 domain 1; A450 nm): 1.0105 and 0.6885 | OD S/N (KIAA0973 #148.4 domain 1; vs GST only well): 6.22 and 5.12 | Ave OD (KIAA1526 #126.1 domain 2; A450 nm): 0.4625 | OD S/N (KIAA1526 #126.1 domain 2; vs GST only well): 1.87 | Ave OD (MAGI 1 domain 3; A450 nm): 0.354 | OD S/N (MAGI 1 domain 3; vs GST only well): 1.46 | Ave OD (MAGI 1 domain 6; A450 nm): 0.71 | OD S/N (MAGI 1 domain 6; vs GST only well): 2.47 | Ave OD (Magi2 domain 3; A450 nm): 0.4165 and 0.359 | OD S/N (Magi2 domain 3; vs GST only well): 1.98 and 1.65 | OD S/N (NeDLG domain 2): 2.20 and 3.99 | Ave OD (Shroom domain 1; A450 nm): 0.361 | OD S/N (Shroom domain 1; vs GST only well): 3.25 | Ave OD (X-11 beta domain 2; A450 nm): 0.4315 and 0.4265 | OD S/N (X-11 beta domain 2; vs GST only well): 2.95 and 1.78
